Data from US20240317827A1, “LINEAR PEPTIDES INHIBITING CK2-MEDIATED PHOSPHORYLATION AND COMPOSITIONS COMPRISING SAME” (CENTRO DE INGENIERÍA GENÉTICA Y BIOTECNOLOGÍA, priority 2021, published 2024).
Read-outs that look alike come from different tables or passages of the source. Where a SMILES comes first, the peptide text is derived from it. Bridges are numbered along the chain shown (N, C = ends). [ ]: non-standard residue; d: D form. βAla = NCCC(=O)O

What was measured:
[1] = molecular target: phosphoacceptor site of the CK2 enzyme in the E7 protein of HPV-16 (BIOT peptide, […]) (Human papillomavirus type 16, UniProt P03129); conditions: peptide coupled to resin; BIOT peptide 120 μg/mL; streptavidin-alkaline phosphatase, BCIP
Experimental: For the identification of bioactive linear peptides that interact with the phosphoacceptor site of the CK2 enzyme, a combinatorial library of synthetic linear peptides named BCP-1 by type of “one-bead-one-compound” was screened, containing more than 16 million of different peptide sequences. […] Screening was performed with a biotinylated synthetic peptide, called BIOT, which contains the phosphoacceptor site of the CK2 enzyme in the E7 substrate of HPV-16 ([sequence], identified as SEQ ID NO: 63). The streptavidin-alkaline phosphatase conjugate was used as recognition molecule, and p-toluidine salt of 5-bromo-4-chloro-3-indolyl-phosphate (BCIP) was used as substrate for development. The blue color facilitates the visual differentiation of the beads containing bioactive sequences recognized by the BIOT peptide, compared to the bright light yellow color of the TentaGel resin at the BCP-1 library.
The BCP-1 library was placed in a polypropylene reactor with a vacuum filtration system and mechanical agitation. It was washed with purified water and saline phosphate buffer solution (PBS) pH 7.4; and blocked with 1% bovine serum albumin (BSA) in PBS pH 7.4 for one hour. Solvents and reagents were removed by vacuum filtration. The library was incubated with 80 mL of a BIOT peptide solution at 150 g/mL in 1% BSA in PBS pH 7.4, for 16 h at 4° C. […]

[2] = test system: MGH-U4 bladder cancer line; assay: cell proliferation assay, MGH-U4 line; type: cell-based; conditions: Table 9
Experimental: (§1) Antiproliferative assays were performed on the NCI-H125, Hep2C (laryngeal carcinoma) cell lines, and on two bladder cancer lines (MGH-U3 and MGH-U4). The test was carried out according to the procedure previously described (Perera Y., et al, 2012, Pept. Sci, 18 (4):215-23).

[3] = test system: AsPC-1 cell line (pancreatic adenocarcinoma); type: cell-based
Experimental: The cell proliferation assay was performed following the procedure previously described (Perera Y, et al., 2012, J. Pept. Sci, 18 (4):215-23).
(§2) The evaluation of the antiproliferative activity of synthetic polypeptides A15P35, A15P36 and A15P37 (SEQ ID NO: 46-SEQ ID NO: 48) was performed on the NCI-H125, AsPC-1, PanC-1 (pancreatic carcinoma) and OCI-AML3 (acute myeloid leukemia-3) cell lines. The test was carried out according to the procedure previously described (Perera Y, et al., 2012, J. Pept. Sci, 18 (4):215-23). […] The polypeptides A15P35, A15P36 and A15P37 were able to produce a dose-dependent effect on the proliferation of NCI-H125 cells.

[4] = test system: Hep2C (laryngeal carcinoma) cell line; assay: cell proliferation assay, Hep2C line; type: cell-based; conditions: Table 9
Experimental: as §1

[5] = molecular target: T1, CK2-mediated phosphorylation of the HPV-16 E7 oncoprotein (Human papillomavirus type 16, UniProt P03129); assay: in vitro phosphorylation reaction, E7 oncoprotein (GST fusion) as substrate; type: biochemical; conditions: procedure of Example 2
T1 construct: Glutathione S-Transferase (GST); made in house; host or cells: Escherichia coli
Experimental: The assay to measure the effect of these peptides on the CK2-mediated phosphorylation of the HPV-16 E7 oncoprotein, was based on an in vitro phosphorylation reaction, where the E7 oncoprotein of HPV-16 expressed in Escherichia coli was used as substratum. This oncoprotein was obtained as a fusion protein to Glutathione S-Transferase. The assay was performed according to the procedure previously described. (Perea S. E., et al., 2004, Cancer Res., 64: 7127-7129). The results are shown in FIG. 1, and indicate that the peptides identified as SEQ ID NO: 1-SEQ ID NO: 9 are capable of inhibiting CK2-mediated phosphorylation of the E7 protein of HPV-16.

[6] = test system: OCI-AML3 (acute myeloid leukemia-3) cell line; assay: cell proliferation assay, OCI-AML3 line; type: cell-based; conditions: Table 7
Experimental: as §2

[7] = test system: PanC-1 (pancreatic carcinoma) cell line; assay: cell proliferation assay, PanC-1 line; type: cell-based; conditions: Table 7
Experimental: as §2

[8] = test system: MGH-U3 bladder cancer line; assay: cell proliferation assay, MGH-U3 line; type: cell-based, human; conditions: Table 9
Experimental: as §1

[9] = test system: NCI-H125 cell line (non-small cell lung cancer); assay: cell proliferation assay, NCI-H125 line; type: cell-based
Experimental: The evaluation of the antiproliferative activity of polypeptides F11P13-F11P21 (SEQ ID NO: 12-SEQ ID NO: 20) was performed on the NCI-H125 cell line. […] The antiproliferative effect of the CIGB-300 peptide has been widely characterized in this line (Cirigliano S. M., et al., 2017, Cancer Cell International, 17, 42), therefore, it was selected as a positive control. Tat peptide was used as a negative control. The polypeptides were evaluated at the concentrations of 25, 50, 100 and 200 μM. The cell proliferation assay was performed by a previously described procedure (Perera Y., et al., 2012, J. Pept. Sci, 18 (4):215-23).
The 24 polypeptides identified as SEQ ID NO: 21-SEQ ID NO: 44 maintained the ability to inhibit the phosphorylation of the E7 protein of HPV-16, mediated by CK2, since phosphorylation inhibition values between 60-85% were obtained. […] Evaluation of the antiproliferative activity of synthetic polypeptides generated by positional scanning of Trp (SEQ ID NO: 21-SEQ ID NO: 44) was performed on the NCI-H125 cell line. The test was performed by the procedure previously described. (Perera Y., et al., 2012, J. Pept. Sci, 18 (4): 215-23). Precursor polypeptides (F11P19, F11P20, F11P21) and peptide CIGB-300 were included as positive controls. The polypeptides were evaluated at the concentrations of 12.5; 25; fifty; 100 and 200 μM.
as §2, §1

[10] = test system: cell proliferation in vitro; conditions: literature value; read-out: mean maximum inhibitory concentration (IC50), cell proliferation in vitro; cited from earlier work
[11] = Table 7, read-out: IC50 (μM) NCI-H125

T1 sequence (P03129 whole entry, the tested form may be a part): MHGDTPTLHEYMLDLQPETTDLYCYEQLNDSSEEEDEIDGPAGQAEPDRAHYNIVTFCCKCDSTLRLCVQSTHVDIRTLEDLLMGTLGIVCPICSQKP

For VAGFFLDP [P11], the “blue color development after enzymatic assay (interaction with the CK2 phosphoacceptor site)” value [1] was “did not develop blue coloration”.
With CSCC[C@@H]1NC(=O)[C@H](Cc2c[nH]c3ccccc23)NC(=O)[C@@H](NC(=O)CCNC(=O)[C@H](CCC(N)=O)NC(=O)[C@@H]2CCCN2C(=O)[C@@H]2CCCN2C(=O)[C@H](CCCNC(=N)N)NC(=O)[C@H](CCCNC(=N)N)NC(=O)[C@H](CCCNC(=N)N)NC(=O)[C@H](CCC(N)=O)NC(=O)[C@H](CCCNC(=N)N)NC(=O)[C@H](CCCNC(=N)N)NC(=O)[C@H](CCCCN)NC(=O)[C@H](CCCCN)NC(=O)[C@H](CCCNC(=N)N)NC(=O)CN)CSSC[C@@H](C(N)=O)NC(=O)[C@H]([C@@H](C)O)NC(=O)CNC(=O)[C@H](CC(C)C)NC(=O)[C@H](Cc2c[nH]cn2)NC(=O)[C@H](CCCNC(=N)N)NC(=O)[C@@H]2CCCN2C(=O)[C@H](CO)NC1=O [CIGB-300, cycle (Cys15-Cys25) GRKKRRQRRRPPQ-βA-CWMSPRHLGTC, reference compound] (H-GRKKRRQRRRPPQ[βAla]CWMSPRHLGTC-NH2; disulfide 15-25; N-terminus and C-terminus assumed) the IC50 [2] was 335 µM, the IC50 ([3]; AsPC-1, read-out: IC50) was 102 µM and the IC50 [4] was 61 µM. For the same compound, the phosphorylation inhibition [5] was 87%, the IC50 [6] was 63 µM and the IC50 [7] was 156 µM. The IC50 [8] was 327 µM, the “percentage of inhibition of proliferation” value ([9]; NCI-H125, evaluated at 25, 50, 100 and 200 μM, concentration not given) was 50% and the IC50 ([9]; NCI-H125, read-out: IC50 (dose-effect curves)) was 64 µM. The IC50 [9, 11] was 64 µM and the IC50 ([9]; Table 9, read-out: IC50 (μM) NCl-H125) was 64 µM.
For O=C(O)c1ccc2c(c1)nc(Nc1cccc(Cl)c1)c1ccncc12 [CX-4945], the IC50 [10] is given as 5.5 µM.
For N=C(N)NCCC[C@H](NC(=O)CN)C(=O)N[C@@H](CCCCN)C(=O)N[C@@H](CCCCN)C(=O)N[C@@H](CCCNC(=N)N)C(=O)N[C@@H](CCCNC(=N)N)C(=O)N[C@@H](CCC(N)=O)C(=O)N[C@@H](CCCNC(=N)N)C(=O)N[C@@H](CCCNC(=N)N)C(=O)N[C@@H](CCCNC(=N)N)C(=O)N1CCC[C@H]1C(=O)N1CCC[C@H]1C(=O)N[C@@H](CCC(N)=O)C(=O)NCCC(=O)N[C@@H](Cc1c[nH]c2ccccc12)C(=O)N[C@@H](CCCCN)C(=O)N[C@@H](CCCNC(=N)N)C(=O)N[C@@H](CO)C(=O)N[C@@H](CCCNC(=N)N)C(=O)N[C@@H](Cc1ccc(O)cc1)C(=O)N[C@@H](Cc1c[nH]c2ccccc12)C(=O)N1CCC[C@H]1C(N)=O [A15P35, GRKKRRQRRRPPQ-βA-WKRSRYWP] (H-GRKKRRQRRRPPQ[βAla]WKRSRYWP-NH2; N-terminus and C-terminus assumed), the IC50 ([3]; Table 7, read-out: IC50 (μM) AsPC-1) was 127 µM, the IC50 [6] was 130 µM and the IC50 [7] was 145 µM. For the same compound, the IC50 [9, 11] was 106 µM.
For EQPAFHDP [P10], the “blue color development after enzymatic assay (interaction with the CK2 phosphoacceptor site)” value [1] was “did not develop blue coloration”.
